Data on three molecules can be found in patent US20140088027A1, “PHARMACEUTICAL COMPOSITION COMPRISING AN SGLT2 INHIBITOR AND A PPAR- GAMMA AGONIST AND USES THEREOF” (BOEHRINGER INGELHEIM INTERNATIONAL GMBH, priority 2010, published 2014).

Structures are written as SMILES.

Test [1] can be described thus: Body weight in cafeteria-diet obese female Wistar rats. It is filed as in vivo, rat. The settings on record: obese female Wistar rats on cafeteria diet, 28 day treatment. The protocol:
(§1) An animal model of obesity was used to study the effect of Cpd. A, Pioglitazone or the combination of Cpd. A with Pioglitazone on body weight and total body fat content. For this, female Wistar rats were made obese by exposure to a simplified cafeteria diet containing high fat chow, chocolate and ground peanuts for approximately 19 weeks. Following the induction of obesity, rats were given vehicle (0.5% aqueous hydroxyethylcellulose) for 7 days and were then dosed orally once-daily with either vehicle, 10 mg/kg Cpd. A, 10 mg/kg Pioglitazone, or the combination of Cpd. A and Pioglitazone for 29 days. For the duration of the study rats were maintained on cafeteria diet.
In FIG. 1, results are mean body weights (adjusted for differences between the body weights of the different treatment groups at baseline (Day 1))±SEM (calculated from the residuals of the statistical model), n=10) after 28 day once-daily oral treatment with the glucopyranosyl-substituted benzene derivative (Cpd. A), Pioglitazone or the combination of both Cpd. A and Pioglitazone at the indicated doses.
Body weight data were analyzed by unpaired t-test. […] Combination of Cpd.

Test [2] relates to Zucker diabetic fatty rats (ZDF/Crl-Lepr^fa). Put plainly: Blood glucose time course in male Zucker diabetic fatty rats. It is filed as in vivo, rat. The settings on record: freely fed, 2 h after dosing, two weeks once daily po, Cpd. A 1 mg/kg, pioglitazone 10 mg/kg. From the text:
The SGLT2 inhibitor is the glucopyranosyl-substituted benzene derivative described as compound (I.9) hereinabove and referred to as “Cpd. A” in the following. The PPARγ agonist is pioglitazone. All experimental protocols concerning the use of laboratory animals were reviewed by a federal Ethics Committee and approved by governmental authorities. The time course of blood glucose was followed over a treatment period of 2 weeks in male Zucker diabetic fatty rats (ZDF/Crl-Lepr^fa) with an age of 10 weeks at the start of the study. A pre-dose blood sample was obtained by tail bleed (day 0) and blood glucose was measured with a glucometer. From day 1 to day 15, the animals (n=5/group) received once daily oral administrations of either vehicle alone (0.5% aqueous hydroxyethylcellulose) or this vehicle containing either Cpd. A or pioglitazone or the combination of the Cpd. A with pioglitazone. Blood glucose was measured in tail blood 2 h after dosing in freely fed animals. The data are presented as mean±S.E.M. Statistical comparison was conducted by repeated measures two-way ANOVA followed by Bonferroni post tests for group-wise comparisons. A p value <0.05 was considered to show a statistically significant difference.
Cpd. A is Cpd. A described as compound (I.9) hereinabove at a dose of 1 mg/kg. Pioglitazone was dosed at 10 mg/kg. Combination Cpd. […]

Test [3] can be described thus: Plasma insulin in cafeteria-diet obese female Wistar rats. The format is in vivo, rat. The settings on record: fed, 10 mg/kg po once daily each, after 28/29 days. Here is the method: as §1
After 28 days of treatment, blood samples were collected from the tail vein (from fed animals) for analysis of insulin. Plasma insulin values were determined by using a Millipore Luminex RENDO 85K kit.
In FIG. 2, results are mean plasma insulin levels±SEM after 29 days of once-daily oral treatment with the glucopyranosyl-substituted benzene derivative (Cpd. A), Pioglitazone or the combination of both Cpd. A and Pioglitazone at the indicated doses. Plasma insulin values were analyzed by unpaired t-test. P values versus vehicle control are indicated by symbols above the bars (*, p<0.05; **, p<0.01; ***, p<0.001). […] Combination of Cpd.

Test [4] can be described thus: Body composition (FoodScan NIR) in cafeteria-diet obese female Wistar rats. It is filed as in vivo, rat. The settings on record: 10 mg/kg po once daily, carcass analysis at Day 31. The protocol: as §1
At the end of the study on Day 31 (24 hours after the last treatment on Day 30) all rats were terminated, the body exsanguinated and the following tissues removed: the caudate liver lobe, the pancreas, the kidneys. Body composition (body fat, protein and water) was determined using the FoodScan NIR (near infra-red) meat analyser (Foss UK). This machine has AOAC (Association of Official Analytical Chemists) approval as reference method for the analysis of moisture, fat and protein in meat. The carcasses were milled under liquid nitrogen and a portion of the milled carcass was analysed in the FoodScan Analyser.
Results are the percentage reduction in each parameter when compared to control and presented along with the corresponding percentage reduction in carcass weight compared to the vehicle-treated control group. Body composition (body fat, protein and water) was determined using the FoodScan NIR (near infra-red) meat analyser (Foss UK).

The conditions of test [5]: metformin on its own, in the diabetic; cited from earlier work.

Consider `OC[C@H]1O[C@@H](c2ccc(Cl)c(Cc3ccc(O[C@H]4CCOC4)cc3)c2)[C@H](O)[C@@H](O)[C@@H]1O` [Cpd. A], for which the “reduction of body weight compared to vehicle-treated control” value in test [1] (10 mg/kg po once daily) is 3.1%. Further, in test [2], the “reduction of blood glucose” value turned out to be 37%. Further, in test [3], the “plasma insulin levels versus vehicle control” value is recorded as “reduced the plasma insulin levels significantly”. Also, in test [4], the “Carcass weight (%), percentage reduction compared to vehicle-treated control” value is −3.5%; the “Fat (%), percentage reduction compared to control” value is −4.5%; the “Protein (%), percentage reduction compared to control” value was −1.5%; the “Water (%), percentage reduction compared to control” value is on record as −0.3%.
As for `CCc1ccc(CCOc2ccc(CC3SC(=O)NC3=O)cc2)nc1` (centres unmarked) [Pioglitazone, pioglitazone], the “increase of body weight compared to vehicle-treated control animals” value in test [1] (10 mg/kg po once daily each) amounted to 6.8%. Besides, the “reduction of blood glucose” value in test [2] is listed as 48%. In test [4], the “Carcass weight (%), percentage reduction compared to vehicle-treated control” value was found to be 6.2%; the “Fat (%), percentage reduction compared to control” value is recorded as 15.4%; the “Protein (%), percentage reduction compared to control” value amounted to 1.1%; the “Water (%), percentage reduction compared to control” value is 3.6%.
Turning to `CN(C)C(=N)N=C(N)N` [metformin], the “average improvement in the HbA1c value” in test [5] is given as 1.0-1.5%.
